Laboratory results reported in US8987256B2, “Oxo-heterocyclic substituted carboxylic acid derivatives and the use thereof” (Bayer Intellectual Property GmbH, priority 2008, dated 2015).

Experiments:
saphenous artery rings = assay: Vasorelaxant effect in vitro (phenylephrine-contracted artery rings); set-up: species or system Rabbits; settings: Oryctolagus cuniculus, concentration reducing phenylephrine-induced contraction by 50%
[1] = biological target: T1, Heme-containing sGC (recombinant soluble guanylate cyclase) (Rattus norvegicus, UniProt P20595); assay: Stimulation of recombinant soluble guanylate cyclase (sGC) in vitro, heme-containing enzyme; format: biochemical
T1 construct: made in house; host or cells: baculovirus/Sf9 insect cells
T1 sequence (P20595 1-619): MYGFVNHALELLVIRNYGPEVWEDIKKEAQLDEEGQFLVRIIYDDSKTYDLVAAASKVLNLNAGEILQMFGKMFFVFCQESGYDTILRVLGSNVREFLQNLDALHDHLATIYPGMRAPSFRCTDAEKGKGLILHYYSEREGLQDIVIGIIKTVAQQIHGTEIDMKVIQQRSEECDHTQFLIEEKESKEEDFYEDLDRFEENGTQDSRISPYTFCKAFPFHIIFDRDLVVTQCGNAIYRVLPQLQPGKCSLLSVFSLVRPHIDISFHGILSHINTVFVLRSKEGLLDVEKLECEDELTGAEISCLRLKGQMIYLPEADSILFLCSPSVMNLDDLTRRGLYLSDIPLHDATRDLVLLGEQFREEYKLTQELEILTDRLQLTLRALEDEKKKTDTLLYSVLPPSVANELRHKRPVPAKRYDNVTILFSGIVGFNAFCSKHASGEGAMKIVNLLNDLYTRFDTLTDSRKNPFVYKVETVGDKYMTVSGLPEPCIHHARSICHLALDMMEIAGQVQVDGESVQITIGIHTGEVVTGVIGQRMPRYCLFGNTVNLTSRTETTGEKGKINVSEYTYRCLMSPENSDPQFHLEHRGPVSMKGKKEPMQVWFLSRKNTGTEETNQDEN
T1 sequence (P19686 1-690 partner): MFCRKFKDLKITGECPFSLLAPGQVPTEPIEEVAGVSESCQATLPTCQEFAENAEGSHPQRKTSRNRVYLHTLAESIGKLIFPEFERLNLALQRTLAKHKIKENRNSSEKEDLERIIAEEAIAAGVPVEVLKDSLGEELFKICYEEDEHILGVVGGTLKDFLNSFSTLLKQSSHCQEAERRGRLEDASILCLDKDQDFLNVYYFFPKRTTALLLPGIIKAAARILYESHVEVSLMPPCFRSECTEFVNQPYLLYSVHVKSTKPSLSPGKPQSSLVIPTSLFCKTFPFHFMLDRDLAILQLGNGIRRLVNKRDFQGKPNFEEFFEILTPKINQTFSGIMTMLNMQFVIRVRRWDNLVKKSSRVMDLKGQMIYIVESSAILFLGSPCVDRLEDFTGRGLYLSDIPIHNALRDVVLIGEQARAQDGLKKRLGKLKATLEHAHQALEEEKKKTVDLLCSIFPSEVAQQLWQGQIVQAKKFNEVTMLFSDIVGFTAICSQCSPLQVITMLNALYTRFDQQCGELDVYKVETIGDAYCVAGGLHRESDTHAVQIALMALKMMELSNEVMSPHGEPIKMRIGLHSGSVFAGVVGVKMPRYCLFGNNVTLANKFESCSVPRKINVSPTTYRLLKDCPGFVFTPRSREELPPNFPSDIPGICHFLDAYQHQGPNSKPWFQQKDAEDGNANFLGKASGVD
Description: Hoenicka, E. M. Becker, H. Apeler, T. Sirichoke, H. Schroeder, R. Gerzer and J.-P. Stasch, “Purified soluble guanylyl cyclase expressed in a baculovirus/Sf9 system: Stimulation by YC-1, nitric oxide, and carbon oxide”, J. Mol. Med. 77 (1999), 14-23. The heme-free guanylate cyclase is obtained by adding Tween 20 to the sample buffer (0.5% in the final concentration).
(§1) The activation of sGC by a test substance is reported as n-fold stimulation of the basal activity.

[2] = biological target: T2, Heme-free sGC (recombinant soluble guanylate cyclase) (Rattus norvegicus, UniProt P20595); assay: Stimulation of recombinant soluble guanylate cyclase (sGC) in vitro, heme-free enzyme; format: biochemical
T2 construct: made in house; host or cells: baculovirus/Sf9 insect cells
T2 sequence (P20595 1-619): T1 sequence (P20595 1-619)
T2 sequence (P19686 1-690 partner): T1 sequence (P19686 1-690 partner)
Method: Investigations on the stimulation of recombinant soluble guanylate cyclase (sGC) by the compounds according to the invention with and without sodium nitroprusside, and with and without the heme-dependent sGC inhibitor 1H-1,2,4-oxadiazolo-(4,3a)-quinoxalin-1-one (ODQ) are carried out by the method described in detail in the following reference: M. Hoenicka, E. M. Becker, H. Apeler, T. Sirichoke, H. Schroeder, R. Gerzer and J.-P. Stasch, “Purified soluble guanylyl cyclase expressed in a baculovirus/Sf9 system: Stimulation by YC-1, nitric oxide, and carbon oxide”, J. Mol. Med. 77 (1999), 14-23. The heme-free guanylate cyclase is obtained by adding Tween 20 to the sample buffer (0.5% in the final concentration).
as §1

For `O=C(O)CCc1cccc(NC(=O)C(c2ccc(CN3N=C(c4ccccc4)OCC3=O)cc2)C2CCCC2)c1` (single isomer, unassigned) [Example 103, 3-{3-[(Cyclopentyl{4-[(5-oxo-2-phenyl-5,6-dihydro-4H-1,3,4-oxadiazin-4-yl)methyl]phenyl}acetyl)amino]phenyl}propanoic acid], the IC50 (saphenous artery rings) was 120 nM, the “Stimulation (n-fold) of heme-containing sGC, basal” value ([1]; 0.1 μM Example 103) was 1.2 n-fold and the “Stimulation (n-fold) of heme-containing sGC, +0.1 μM DEA/NO” value (shortened to “Stimulation (n-fold) … +0.1 μM DEA/NO”) ([1]; 0.1 μM Example 103) was 6.9 n-fold. For the same molecule, the “Stimulation (n-fold) of heme-containing sGC, +10 μM ODQ” value (“Stimulation (n-fold) … +10 μM ODQ” below) ([1]; 0.1 μM Example 103) was 5.8 n-fold, the “Stimulation (n-fold) of heme-containing sGC, basal” value ([1]; 1 μM Example 103) was 1.4 n-fold and the “Stimulation (n-fold) … +0.1 μM DEA/NO” value ([1]; 1 μM Example 103) was 7.8 n-fold. The “Stimulation (n-fold) … +10 μM ODQ” value ([1]; 1 μM Example 103) was 8.5 n-fold, the “Stimulation (n-fold) of heme-containing sGC, basal” value ([1]; 10 μM Example 103) was 6.2 n-fold and the “Stimulation (n-fold) … +0.1 μM DEA/NO” value ([1]; 10 μM Example 103) was 13.5 n-fold. The “Stimulation (n-fold) … +10 μM ODQ” value ([1]; 10 μM Example 103) was 36.8 n-fold, the “Stimulation (n-fold) of heme-containing sGC, basal” value ([1]; 100 μM Example 103) was 22.3 n-fold and the “Stimulation (n-fold) … +0.1 μM DEA/NO” value ([1]; 100 μM Example 103) was 35.6 n-fold. For the same molecule, the “Stimulation (n-fold) … +10 μM ODQ” value ([1]; 100 μM Example 103) was 91.8 n-fold, the “Effect of combination with the NO donor DEA/NO on sGC stimulation” value ([1]; combination with DEA/NO) was “no synergistic effect” and the “Stimulation (n-fold) of heme-free sGC, basal” value ([2]; 0.1 μM Example 103) was 1.1 n-fold. For the same molecule, the “Stimulation (n-fold) of heme-free sGC, basal” value ([2]; 1 μM Example 103) was 2.4 n-fold, the “Stimulation (n-fold) of heme-free sGC, basal” value ([2]; 10 μM Example 103) was 13.9 n-fold and the “Stimulation (n-fold) of heme-free sGC, basal” value ([2]; 100 μM Example 103) was 56.1 n-fold.
